The target in assay [1] is T1, recombinant human adrenergic beta 1 receptors (Homo sapiens, UniProt P08588).
T1 construct: purchased Euroscreen
Put plainly: Adrenergic β1 selectivity binding assay ([125I]-Iodocyanopindolol). Conditions: inhibition of [125I]-Iodocyanopindolol binding, human β1 membranes; read-out: β1 bind p IC50 (converted). The method, then: Membranes containing recombinant human adrenergic beta 1 receptors were obtained from Euroscreen. These were diluted in Assay Buffer (50 mM HEPES, 1 mM EDTA, 120 mM NaCl, 0.1% gelatin, pH 7.4) to provide a final concentration of membranes that gave a clear window between maximum and minimum specific binding.
Assays were performed in U-bottomed 96-well polypropylene plates. 10 μL [^125I]-Iodocyanopindolol (0.036 nM final concentration) and 10 μL of test compound (10× final concentration) were added to each test well. For each assay plate 8 replicates were obtained for [^125I]-Iodocyanopindolol binding in the presence of 10 μl vehicle (10% (v/v) DMSO in Assay Buffer; defining maximum binding) or 10 μl Propranolol (10 μM final concentration; defining non-specific binding (NSB)). Membranes were then added to achieve a final volume of 100 μL. The plates were incubated for 2 h at room temperature and then filtered onto PEI coated GF/B filter plates, pre-soaked for 1 h in Assay Buffer, using a 96-well plate Tomtec cell harvester. Five washes with 250 μL wash buffer (50 mM HEPES, 1 mM EDTA, 120 mM NaCl, pH 7.4) were performed at 4° C. to remove unbound radioactivity. The plates were dried then sealed from underneath using Packard plate sealers and MicroScint-O (50 μl) was added to each well. The plates were sealed (TopSeal A) and filter-bound radioactivity was measured with a scintillation counter (TopCount, Packard BioScience) using a 3-minute counting protocol.
Total specific binding (B0) was determined by subtracting the mean NSB from the mean maximum binding. NSB values were also subtracted from values from all other wells. […] Data was fitted to a four parameter logistic equation to determine the compound potency, which was expressed as pIC50 (negative log molar concentration inducing 50% inhibition of [^125I]-Iodocyanopindolol binding).

In assay [2] the target is T2, recombinant human Dopamine Subtype D2s receptors (Homo sapiens, UniProt P14416).
T2 construct: purchased Perkin Elmer
T2 sequence (P14416 1-414 isoform P14416-2): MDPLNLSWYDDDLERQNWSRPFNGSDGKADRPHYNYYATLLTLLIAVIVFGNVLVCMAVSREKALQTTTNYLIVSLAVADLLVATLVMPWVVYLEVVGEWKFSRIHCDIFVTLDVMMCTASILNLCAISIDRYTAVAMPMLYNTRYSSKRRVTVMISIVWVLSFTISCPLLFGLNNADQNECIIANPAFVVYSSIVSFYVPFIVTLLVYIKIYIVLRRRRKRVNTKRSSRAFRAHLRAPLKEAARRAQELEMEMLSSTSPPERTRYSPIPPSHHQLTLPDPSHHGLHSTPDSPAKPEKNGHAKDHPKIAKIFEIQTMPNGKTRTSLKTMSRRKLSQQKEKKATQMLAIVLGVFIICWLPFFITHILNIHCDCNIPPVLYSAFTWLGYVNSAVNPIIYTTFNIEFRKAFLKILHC
Put plainly: Dopamine D2 selectivity binding assay ([3H]-spiperone). Conditions: inhibition of [3H]-spiperone binding, human D2s membranes; read-out: D2 bind pIC50 (converted). The procedure: Membranes containing recombinant human Dopamine Subtype D2s receptors were obtained from Perkin Elmer. These were diluted in Assay Buffer (50 mM HEPES, 1 mM EDTA, 120 mM NaCl, 0.1% gelatin, pH 7.4) to provide a final concentration of membranes that gave a clear window between maximum and minimum specific binding.
Assays were performed in U-bottomed 96-well polypropylene plates. 30 μL [^3H]-spiperone (0.16 nM final concentration) and 30 μl of test compound (10× final concentration) were added to each test well. For each assay plate 8 replicates were obtained for [^3H]-spiperone binding in the presence of 30 μL vehicle (10% (v/v) DMSO in Assay Buffer; defining maximum binding) or 30 μl Haloperidol (10 μM final concentration; defining non-specific binding (NSB)). Membranes were then added to achieve a final volume of 300 μL. The plates were incubated for 2 h at room temperature and then filtered onto PEI coated GF/B filter plates, pre-soaked for 1 h in Assay Buffer, using a 96-well plate Tomtec cell harvester. Five washes with 250 μl wash buffer (50 mM HEPES, 1 mM EDTA, 120 mM NaCl, pH 7.4) were performed at 4° C. to remove unbound radioactivity. The plates were dried then sealed from underneath using Packard plate sealers and MicroScint-O (50 μl) was added to each well. The plates were sealed (TopSeal A) and filter-bound radioactivity was measured with a scintillation counter (TopCount, Packard BioScience) using a 3-minute counting protocol.
Total specific binding (B0) was determined by subtracting the mean NSB from the mean maximum binding. NSB values were also subtracted from values from all other wells. […] Data was fitted to a four parameter logistic equation to determine the compound potency, which was expressed as pIC50 (negative log molar concentration inducing 50% inhibition of [^3H]-spiperone binding).

The values that follow come from patent publication US8017602B2, “N-(2-(2-(5-hydroxy-3-oxo-3,4-dihydro-2H-benzo[b][1,4]oxazin-8-yl)ethylamino)ethyl)-3-(phenethoxy)propanamide derivatives, processes for their preparation, pharmaceutical compositions containing them and their use in therapy” (AstraZeneca AB, priority 2008, dated 2011).

Counter-ions that a name gives are not always drawn.

T1 sequence (P08588 whole entry): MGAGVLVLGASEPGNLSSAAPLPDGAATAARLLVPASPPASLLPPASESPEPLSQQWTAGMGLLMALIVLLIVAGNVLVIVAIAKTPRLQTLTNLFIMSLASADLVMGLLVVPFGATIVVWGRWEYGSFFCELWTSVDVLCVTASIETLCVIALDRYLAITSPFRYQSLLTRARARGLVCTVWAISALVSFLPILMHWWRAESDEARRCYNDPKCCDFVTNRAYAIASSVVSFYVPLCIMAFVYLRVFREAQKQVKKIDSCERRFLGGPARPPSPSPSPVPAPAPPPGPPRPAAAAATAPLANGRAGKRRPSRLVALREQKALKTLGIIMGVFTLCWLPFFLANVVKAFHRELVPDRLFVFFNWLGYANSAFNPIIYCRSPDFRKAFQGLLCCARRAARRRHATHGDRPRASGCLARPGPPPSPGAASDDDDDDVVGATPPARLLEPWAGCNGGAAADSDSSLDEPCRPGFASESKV

Turning to `CC(C)n1cc(-c2cccc(CCOCCC(=O)N(CCNCCc3ccc(O)c4c3OCC(=O)N4)C3CCCC3)c2)cn1` [Example 22, N-Cyclopentyl-N-(2-(2-(5-hydroxy-3-oxo-3,4-dihydro-2H-benzo[b][1,4]oxazin-8-yl)ethylamino)ethyl)-3-(3-(1-isopropyl-1H-pyrazol-4-yl)phenethoxy)propanamide Trifluoroacetic Acid Salt], the IC50 in assay [1] was 5.01 µM; in assay [2] it was 2.51 µM.
The like results for `Cn1cc(-c2cc(F)cc(CCOCCC(=O)N(CCNCCc3ccc(O)c4c3OCC(=O)N4)C3CCCCC3)c2)cn1` [Example 17, N-Cyclohexyl-3-(3-fluoro-5-(1-methyl-1H-pyrazol-4-yl)phenethoxy)-N-(2-(2-(5-hydroxy-3-oxo-3,4-dihydro-2H-benzo[b][1,4]oxazin-8-yl)ethylamino)ethyl)propanamide Trifluoroacetic Acid Salt] were, in that order, 5.01 µM and 2.51 µM.
On the same counts, the results for `C[C@@H](N(CCNCCc1ccc(O)c2c1OCC(=O)N2)C(=O)CCOCCc1cccc(-c2cnn(C)c2)c1)C(C)(C)C` [Example 26, (R)—N-(3,3-Dimethylbutan-2-yl)-N-(2-(2-(5-hydroxy-3-oxo-3,4-dihydro-2H-benzo[b][1,4]oxazin-8-yl)ethylamino)ethyl)-3-(3-(1-methyl-1H-pyrazol-4-yl)phenethoxy)propanamide Trifluoroacetic Acid Salt] are more than 10 µM and 2.51 µM.
On the same counts, the results for `CC(C)[C@@H](C)N(CCNCCc1ccc(O)c2c1OCC(=O)N2)C(=O)CCOCCc1cccc(-c2cnn(C)c2)c1` [Example 09, (R)—N-(2-(2-(5-Hydroxy-3-oxo-3,4-dihydro-2H-benzo[b][1,4]oxazin-8-yl)ethylamino)ethyl)-3-(3-(1-methyl-1H-pyrazol-4-yl)phenethoxy)-N-(3-methylbutan-2-yl)propanamide Trifluoroacetic Acid Salt] are more than 10 µM and more than 10 µM.
For `CCCC[C@@H](C)N(CCNCCc1ccc(O)c2c1OCC(=O)N2)C(=O)CCOCCc1cccc(-c2cnn(C)c2)c1` [Example 30, (R)—N-(Hexan-2-yl)-N-(2-(2-(5-hydroxy-3-oxo-3,4-dihydro-2H-benzo[b][1,4]oxazin-8-yl)ethylamino)ethyl)-3-(3-(1-methyl-1H-pyrazol-4-yl)phenethoxy)propanamide Trifluoroacetic Acid Salt], the IC50 in assay [1] is 3.98 µM; in assay [2], 2.51 µM.
Regarding `COCCn1cc(-c2cccc(CCOCCC(=O)N(CCNCCc3ccc(O)c4c3OCC(=O)N4)C3CCCCC3)c2)cn1` [Example 36, N-Cyclohexyl-N-(2-(2-(5-hydroxy-3-oxo-3,4-dihydro-2H-benzo[b][1,4]oxazin-8-yl)ethylamino)ethyl)-3-(3-(1-(2-methoxyethyl)-1H-pyrazol-4-yl)phenethoxy)propanamide Trifluoroacetic Acid Salt], the figures for the IC50 in assay [1] and in assay [2] were more than 10 µM and more than 7.94 µM, respectively.
Take `O=C1COc2c(CCNCCN(C(=O)CCOCCc3cccc(-c4c[nH]nn4)c3)C3CCCCC3)ccc(O)c2N1` [Example 14, 3-(3-(1H-1,2,3-Triazol-4-yl)phenethoxy)-N-cyclohexyl-N-(2-(2-(5-hydroxy-3-oxo-3,4-dihydro-2H-benzo[b][1,4]oxazin-8-yl)ethylamino)ethyl)propanamide Trifluoroacetic Acid Salt]: the results for the IC50 in assay [1] and in assay [2] were more than 10 µM and 2.51 µM, respectively.
Take `Cn1ccnc1-c1cccc(CCOCCC(=O)N(CCNCCc2ccc(O)c3c2OCC(=O)N3)C2CCCCC2)c1` [Example 33, N-Cyclohexyl-N-(2-(2-(5-hydroxy-3-oxo-3,4-dihydro-2H-benzo[b][1,4]oxazin-8-yl)ethylamino)ethyl)-3-(3-(1-methyl-1H-imidazol-2-yl)phenethoxy)propanamide]: the results for the IC50 in assay [1] and in assay [2] were more than 10 µM and 3.16 µM, respectively.
For the compound `Cc1nc(-c2cccc(CCOCCC(=O)N(CCNCCc3ccc(O)c4c3OCC(=O)N4)C3CCCCC3)c2)cn1C` [Example 35, N-Cyclohexyl-3-(3-(1,2-dimethyl-1H-imidazol-4-yl)phenethoxy)-N-(2-(2-(5-hydroxy-3-oxo-3,4-dihydro-2H-benzo[b][1,4]oxazin-8-yl)ethylamino)ethyl)propanamide Trifluoroacetic Acid Salt], the IC50 is more than 10 µM in assay [1] and 3.16 µM in assay [2].
On the same counts, the results for `CCC[C@@H](C)N(CCNCCc1ccc(O)c2c1OCC(=O)N2)C(=O)CCOCCc1cccc(-c2cnn(C(C)C)c2)c1` [Example 21, (R)—N-(2-(2-(5-Hydroxy-3-oxo-3,4-dihydro-2H-benzo[b][1,4]oxazin-8-yl)ethylamino)ethyl)-3-(3-(1-isopropyl-1H-pyrazol-4-yl)phenethoxy)-N-(pentan-2-yl)propanamide Trifluoroacetic Acid Salt] are 6.31 µM and 3.16 µM.
The like results for `Cn1cc(-c2cccc(CCOCCC(=O)N(CCNCCc3ccc(O)c4c3OCC(=O)N4)C3CCCCC3)c2)nn1` [Example 05, N-Cyclohexyl-N-(2-(2-(5-hydroxy-3-oxo-3,4-dihydro-2H-benzo[b][1,4]oxazin-8-yl)ethylamino)ethyl)-3-(3-(1-methyl-1H-1,2,3-triazol-4-yl)phenethoxy)propanamide Trifluoroacetic Acid Salt] were, in that order, more than 7.94 µM and 3.16 µM.
On the same counts, the results for `CCn1cc(-c2cccc(CCOCCC(=O)N(CCNCCc3ccc(O)c4c3OCC(=O)N4)C3CCCC3)c2)cn1` [Example 24, N-Cyclopentyl-3-(3-(1-ethyl-1H-pyrazol-4-yl)phenethoxy)-N-(2-(2-(5-hydroxy-3-oxo-3,4-dihydro-2H-benzo[b][1,4]oxazin-8-yl)ethylamino)ethyl)propanamide Trifluoroacetic Acid Salt] are 5.01 µM and 3.16 µM.
For the compound `CCn1cc(-c2cccc(CCOCCC(=O)N(CCNCCc3ccc(O)c4c3OCC(=O)N4)[C@H](C)C(C)(C)C)c2)cn1` [Example 25, (R)—N-(3,3-Dimethylbutan-2-yl)-3-(3-(1-ethyl-1H-pyrazol-4-yl)phenethoxy)-N-(2-(2-(5-hydroxy-3-oxo-3,4-dihydro-2H-benzo[b][1,4]oxazin-8-yl)ethylamino)ethyl)propanamide Trifluoroacetic Acid Salt], the IC50 in assay [1] is more than 10 µM; in assay [2], 3.98 µM.
